Measured values as given in patent US7723368B2, “Amino-5-[4-(difluoromethoxy)phenyl]-5-phenylimidazolone compounds for the inhibition of beta-secretase” (Wyeth LLC, priority 2007, dated 2010).

Target: human BACE1 (Homo sapiens, UniProt P56817)
Assay: BACE1 fluorescent kinetic assay (cleavage of peptide substrate WABC-6)
Type: biochemical
Settings: Activity Table, Examples 1-108; 10 nM enzyme, 25 μM substrate WABC-6, pH 4.5, room temperature
Procedure: Evaluation of BACE1 Binding Affinity of Test Compounds
Fluorescent Kinetic Assays
Dilution and mixing steps: total reaction volume: 100 μL
100 μM substrate dilution in 1×PBS was prepared, and
Fluorescence Readings: Readings at λex 320 nm and λem 420 nm are taken every 40 sec for 30 min at room temperature and the linear slope for substrate cleavage rate (vi) determined.

Sequence of human BACE1 (P56817 46-501): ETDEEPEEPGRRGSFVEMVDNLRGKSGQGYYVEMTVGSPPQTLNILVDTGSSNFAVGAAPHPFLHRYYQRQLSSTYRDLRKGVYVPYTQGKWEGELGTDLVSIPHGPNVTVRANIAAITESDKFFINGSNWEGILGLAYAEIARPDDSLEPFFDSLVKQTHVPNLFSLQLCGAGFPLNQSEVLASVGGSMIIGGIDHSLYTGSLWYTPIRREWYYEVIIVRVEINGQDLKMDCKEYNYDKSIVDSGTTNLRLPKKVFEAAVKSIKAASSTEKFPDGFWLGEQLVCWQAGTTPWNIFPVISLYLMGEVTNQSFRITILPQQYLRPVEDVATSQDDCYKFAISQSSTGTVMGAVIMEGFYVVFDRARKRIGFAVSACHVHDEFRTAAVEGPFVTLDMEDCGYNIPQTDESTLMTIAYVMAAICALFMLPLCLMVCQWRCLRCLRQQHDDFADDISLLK

IC50 [nM]	Structure (SMILES)
< 100	C=CCCOc1cccc(C2(c3ccc(OC(F)F)cc3)N=C(N)N(C)C2=O)c1 (stereo not shown) [Example 8, 2-amino-5-[3-(but-3-en-1-yloxy)phenyl]-5-[4-(difluoromethoxy)-phenyl]-3-methyl-3,5-dihydro-4H-imidazol-4-one]
< 100	C=CCCOc1cc(C2(c3ccc(OC(F)F)cc3)N=C(N)N(C)C2=O)ccc1F (stereo not shown) [Example 9, 2-amino-5-[3-(but-3-en-1-yloxy)-4-fluorophenyl]-5-[4-(difluoromethoxy)phenyl]-3-methyl-3,5-dihydro-4H-imidazol-4-one]
< 100	C=CCCOc1cccc([C@@]2(c3ccc(OC(F)F)cc3)N=C(N)N(C)C2=O)c1 [Example 10A, (5R)-2-amino-5-[3-(but-3-en-1-yloxy)phenyl]-5-[4-(difluoromethoxy)phenyl]-3-methyl-3,5-dihydro-4H-imidazol-4-one]
110 to 1000	C=CCCOc1cccc([C@]2(c3ccc(OC(F)F)cc3)N=C(N)N(C)C2=O)c1 [Example 10B, (5S)-2-amino-5-[3-(but-3-en-1-yloxy)phenyl]-5-[4-(difluoromethoxy)phenyl]-3-methyl-3,5-dihydro-4H-imidazol-4-one]
< 100	C=CCCCOc1cccc([C@@]2(c3ccc(OC(F)F)cc3)N=C(N)N(C)C2=O)c1 [Example 10C, (R)-2-amino-4-(4-(difluoromethoxy)phenyl)-1-methyl-4-(3-(pent-4-enyloxy)phenyl)-1H-imidazol-5(4H)-one]
< 100	C=CC[C@@H](C)Oc1cccc([C@@]2(c3ccc(OC(F)F)cc3)N=C(N)N(C)C2=O)c1 [Example 10D, (R)-2-amino-4-(4-(difluoromethoxy)phenyl)-1-methyl-4-(3-((R)-pent-4-en-2-yloxy)phenyl)-1H-imidazol-5(4H)-one]
110 to 1000	C=CC[C@H](C)Oc1cccc([C@@]2(c3ccc(OC(F)F)cc3)N=C(N)N(C)C2=O)c1 [Example 10E, (R)-2-amino-4-(4-(difluoromethoxy)phenyl)-1-methyl-4-(3-((S)-pent-4-en-2-yloxy)phenyl)-1H-imidazol-5(4H)-one]
< 100	C=CC(C)COc1cccc([C@@]2(c3ccc(OC(F)F)cc3)N=C(N)N(C)C2=O)c1 (stereo partly drawn) [Example 10F, (4R)-2-amino-4-(4-(difluoromethoxy)phenyl)-1-methyl-4-(3-(2-methylbut-3-enyloxy)phenyl)-1H-imidazol-5(4H)-one]
< 100	C=C(C)CCOc1cccc([C@@]2(c3ccc(OC(F)F)cc3)N=C(N)N(C)C2=O)c1 [Example 10G, (R)-2-amino-4-(4-(difluoromethoxy)phenyl)-1-methyl-4-(3-(3-methylbut-3-enyloxy)phenyl)-1H-imidazol-5(4H)-one]
< 100	C=CCOc1cccc([C@@]2(c3ccc(OC(F)F)cc3)N=C(N)N(C)C2=O)c1 [Example 10H, (R)-4-(3-(allyloxy)phenyl)-2-amino-4-(4-(difluoromethoxy)phenyl)-1-methyl-1H-imidazol-5(4H)-one]
< 100	CN1C(=O)[C@@](c2ccc(OC(F)F)cc2)(c2cccc(CCCCC#N)c2)N=C1N [Example 11A, 5-(3-{(4R)-2-amino-4-[4-(difluoromethoxy)phenyl]-1-methyl-5-oxo-4,5-dihydro-1H-imidazol-4-yl}phenyl)pentanenitrile]
> 1000	CN1C(=O)[C@](c2ccc(OC(F)F)cc2)(c2cccc(CCCCC#N)c2)N=C1N [Example 11B, 5-(3-{(4S)-2-amino-4-[4-(difluoromethoxy)phenyl]-1-methyl-5-oxo-4,5-dihydro-1H-imidazol-4-yl}phenyl)pentanenitrile]
< 100	CN1C(=O)C(c2ccc(OC(F)F)cc2)(c2cccc(C#CCCCF)c2)N=C1N (stereo not shown) [Example 19D, 2-amino-5-[4-(difluoromethoxy)phenyl]-5-[3-(5-fluoropent-1-yn-1-yl)phenyl]-3-methyl-3,5-dihydro-4H-imidazol-4-one]
< 100	CN1C(=O)[C@@](c2ccc(OC(F)F)cc2)(c2cccc(C#CCCCF)c2)N=C1N [Example 19E, (5R)-2-amino-5-[4-(difluoromethoxy)phenyl]-5-[3-(5-fluoropent-1-yn-1-yl)phenyl]-3-methyl-3,5-dihydro-4H-imidazol-4-one]
> 1000	CN1C(=O)[C@](c2ccc(OC(F)F)cc2)(c2cccc(C#CCCCF)c2)N=C1N [Example 19F, (5S)-2-amino-5-[4-(difluoromethoxy)phenyl]-5-[3-(5-fluoropent-1-yn-1-yl)phenyl]-3-methyl-3,5-dihydro-4H-imidazol-4-one]
< 100	CN1C(=O)C(c2ccc(OC(F)F)cc2)(c2ccc(F)c(C#CCCCCl)c2)N=C1N (stereo not shown) [Example 20A, 2-amino-5-[3-(5-chloropent-1-yn-1-yl)-4-fluorophenyl]-5-[4-(difluoromethoxy)phenyl]-3-methyl-3,5-dihydro-4H-imidazol-4-one]
< 100	CN1C(=O)C(c2ccc(OC(F)F)cc2)(c2cccc(C#CCCCCl)c2)N=C1N (stereo not shown) [Example 20B, 2-amino-5-[3-(5-chloropent-1-yn-1-yl)-phenyl]-5-[4-(difluoromethoxy)phenyl]-3-methyl-3,5-dihydro-4H-imidazol-4-one]
110 to 1000	CCC(=O)Nc1cccc(C2(c3ccc(OC(F)F)cc3)N=C(N)N(C)C2=O)c1 (stereo not shown) [Example 21]
110 to 1000	CCCC(=O)Nc1cccc(C2(c3ccc(OC(F)F)cc3)N=C(N)N(C)C2=O)c1 (stereo not shown) [Example 22]
110 to 1000	CCCCC(=O)Nc1cccc(C2(c3ccc(OC(F)F)cc3)N=C(N)N(C)C2=O)c1 (stereo not shown) [Example 23]
110 to 1000	CN1C(=O)C(c2ccc(OC(F)F)cc2)(c2cccc(NC(=O)CCCl)c2)N=C1N (stereo not shown) [Example 24]
< 100	CN1C(=O)C(c2ccc(OC(F)F)cc2)(c2cccc(NC(=O)C(F)(F)F)c2)N=C1N (stereo not shown) [Example 25]
< 100	CC(C)CC(=O)Nc1cccc(C2(c3ccc(OC(F)F)cc3)N=C(N)N(C)C2=O)c1 (stereo not shown) [Example 26]
110 to 1000	CC(C)C(=O)Nc1cccc(C2(c3ccc(OC(F)F)cc3)N=C(N)N(C)C2=O)c1 (stereo not shown) [Example 27]
110 to 1000	CN1C(=O)C(c2ccc(OC(F)F)cc2)(c2cccc(NC(=O)C3CC3)c2)N=C1N (stereo not shown) [Example 28]

IC50 [nM]	Structure (SMILES)
110 to 1000	CN1C(=O)C(c2ccc(OC(F)F)cc2)(c2cccc(NC(=O)C3CCC3)c2)N=C1N (stereo not shown) [Example 29]
110 to 1000	CC=CC(=O)Nc1cccc(C2(c3ccc(OC(F)F)cc3)N=C(N)N(C)C2=O)c1 (stereo not shown) [Example 30]
> 1000	CC(C)=CC(=O)Nc1cccc(C2(c3ccc(OC(F)F)cc3)N=C(N)N(C)C2=O)c1 (stereo not shown) [Example 31]
110 to 1000	CN1C(=O)C(c2ccc(OC(F)F)cc2)(c2cccc(NC(=O)C=Cc3ccccc3)c2)N=C1N (stereo not shown) [Example 32]
< 100	CN1C(=O)C(c2ccc(OC(F)F)cc2)(c2cccc(NC(=O)c3ccco3)c2)N=C1N (stereo not shown) [Example 33]
110 to 1000	CN1C(=O)C(c2ccc(OC(F)F)cc2)(c2cccc(NC(=O)COCc3ccccc3)c2)N=C1N (stereo not shown) [Example 34]
110 to 1000	CN1C(=O)C(c2ccc(OC(F)F)cc2)(c2cccc(NC(=O)c3ccccc3)c2)N=C1N (stereo not shown) [Example 35]
< 100	CN1C(=O)C(c2ccc(OC(F)F)cc2)(c2cccc(NC(=O)C(Cl)(Cl)Cl)c2)N=C1N (stereo not shown) [Example 36]
< 100	CN1C(=O)C(c2ccc(OC(F)F)cc2)(c2cccc(NC(=O)c3sccc3Br)c2)N=C1N (stereo not shown) [Example 39]
< 100	CN1C(=O)C(c2ccc(OC(F)F)cc2)(c2cccc(NC(=O)c3coc4ccccc34)c2)N=C1N (stereo not shown) [Example 40]
110 to 1000	CN1C(=O)C(c2ccc(OC(F)F)cc2)(c2cccc(NC(=O)c3cccs3)c2)N=C1N (stereo not shown) [Example 42]
< 100	CCCNc1cccc(C2(c3ccc(OC(F)F)cc3)N=C(N)N(C)C2=O)c1 (stereo not shown) [Example 43]
< 100	CCCCNc1cccc(C2(c3ccc(OC(F)F)cc3)N=C(N)N(C)C2=O)c1 (stereo not shown) [Example 44]
< 100	CC(C)CNc1cccc(C2(c3ccc(OC(F)F)cc3)N=C(N)N(C)C2=O)c1 (stereo not shown) [Example 45]
110 to 1000	CC(C)Nc1cccc(C2(c3ccc(OC(F)F)cc3)N=C(N)N(C)C2=O)c1 (stereo not shown) [Example 46]
< 100	CN1C(=O)C(c2ccc(OC(F)F)cc2)(c2cccc(NC3CCCC3)c2)N=C1N (stereo not shown) [Example 47]
110 to 1000	CN1C(=O)C(c2ccc(OC(F)F)cc2)(c2cccc(NC3CCCCC3)c2)N=C1N (stereo not shown) [Example 48]
110 to 1000	CN1C(=O)C(c2ccc(OC(F)F)cc2)(c2cccc(NC3CCC3)c2)N=C1N (stereo not shown) [Example 50]
< 100	CN1C(=O)C(c2ccc(OC(F)F)cc2)(c2cccc(NCc3ccco3)c2)N=C1N (stereo not shown) [Example 51]
> 1000	CN1C(=O)C(c2ccc(OC(F)F)cc2)(c2cccc(C3CC(=CCO)C3)c2)N=C1N (stereo not shown) [Example 56, 2-amino-5-[4-(difluoromethoxy)phenyl]-5-{3-[3-(2-hydroxyethylidene)cyclobutyl]phenyl}-3-methyl-3,5-dihydro-4H-imidazol-4-one]
110 to 1000	CN1C(=O)C(c2ccc(OC(F)F)cc2)(c2cccc(C3CC(CCF)C3)c2)N=C1N (stereo not shown) [Example 58, 2-amino-5-[4-(difluoromethoxy)phenyl]-5-{3-[3-(2-fluoroethyl)cyclobutyl]phenyl}-3-methyl-3,5-dihydro-4H-imidazol-4-one]
110 to 1000	COCCC1CC(c2cccc(C3(c4ccc(OC(F)F)cc4)N=C(N)N(C)C3=O)c2)C1 (stereo not shown) [Example 59, 2-amino-5-[4-(difluoromethoxy)phenyl]-5-{3-[3-(2-methoxyethyl)cyclobutyl]phenyl}-3-methyl-3,5-dihydro-4H-imidazol-4-one]
110 to 1000	CN1C(=O)C(c2ccc(OC(F)F)cc2)(c2cccc(Nc3ccccc3)c2)N=C1N (stereo not shown) [Example 60, 2-amino-5-(3-anilinophenyl)-5-[4-(difluoromethoxy)phenyl]-3-methyl-3,5-dihydro-4H-imidazol-4-one]
110 to 1000	CC(C)NCc1cccc(C2(c3ccc(OC(F)F)cc3)N=C(N)N(C)C2=O)c1 (stereo not shown) [Example 61, 2-Amino-5-(4-difluoromethoxy-phenyl)-5-[3-(isopropylamino-methyl)-phenyl]-3-methyl-3,5-dihydro-imidazol-4-one]
